# Reference: ChEMBL document CHEMBL5360537, “From lead to clinic: A review of the structural design of P2X7R antagonists” (Eur J Med Chem, 2023)
# Assays:
# P2X purinoceptor 7 [1] = target: T1, P2X purinoceptor 7 (Homo sapiens, UniProt Q99572); assay: Antagonist activity at human P2X7 receptor expressed in 1321N1 cells by FLIPR assay; assay type: cell-based
# T1 sequence (Q99572 whole entry): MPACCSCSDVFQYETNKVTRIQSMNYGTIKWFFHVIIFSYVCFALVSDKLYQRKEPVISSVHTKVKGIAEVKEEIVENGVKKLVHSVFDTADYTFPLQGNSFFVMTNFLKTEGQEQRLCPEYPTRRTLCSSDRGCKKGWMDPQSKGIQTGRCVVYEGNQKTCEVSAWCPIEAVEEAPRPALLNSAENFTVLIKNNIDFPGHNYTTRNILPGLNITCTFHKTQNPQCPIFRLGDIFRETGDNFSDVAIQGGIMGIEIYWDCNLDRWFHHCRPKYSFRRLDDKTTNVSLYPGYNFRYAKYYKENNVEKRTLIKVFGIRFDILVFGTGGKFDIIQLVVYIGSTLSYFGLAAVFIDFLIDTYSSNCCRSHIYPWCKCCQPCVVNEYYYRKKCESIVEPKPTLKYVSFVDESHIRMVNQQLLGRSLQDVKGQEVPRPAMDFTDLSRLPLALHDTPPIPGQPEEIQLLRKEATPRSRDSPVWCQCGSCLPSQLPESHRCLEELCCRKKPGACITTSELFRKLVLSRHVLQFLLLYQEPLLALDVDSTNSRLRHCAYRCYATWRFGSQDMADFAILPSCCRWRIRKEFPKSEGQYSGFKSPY
# P2X purinoceptor 7 [2] = target: T1, P2X purinoceptor 7; assay: Antagonist activity at human P2X7 receptor
# P2X purinoceptor 7 [3] = target: T2, P2X purinoceptor 7 (Rattus norvegicus, UniProt Q64663); assay: Antagonist activity at rat P2X7 receptor by calcium flux assay
# T2 sequence (Q64663 whole entry): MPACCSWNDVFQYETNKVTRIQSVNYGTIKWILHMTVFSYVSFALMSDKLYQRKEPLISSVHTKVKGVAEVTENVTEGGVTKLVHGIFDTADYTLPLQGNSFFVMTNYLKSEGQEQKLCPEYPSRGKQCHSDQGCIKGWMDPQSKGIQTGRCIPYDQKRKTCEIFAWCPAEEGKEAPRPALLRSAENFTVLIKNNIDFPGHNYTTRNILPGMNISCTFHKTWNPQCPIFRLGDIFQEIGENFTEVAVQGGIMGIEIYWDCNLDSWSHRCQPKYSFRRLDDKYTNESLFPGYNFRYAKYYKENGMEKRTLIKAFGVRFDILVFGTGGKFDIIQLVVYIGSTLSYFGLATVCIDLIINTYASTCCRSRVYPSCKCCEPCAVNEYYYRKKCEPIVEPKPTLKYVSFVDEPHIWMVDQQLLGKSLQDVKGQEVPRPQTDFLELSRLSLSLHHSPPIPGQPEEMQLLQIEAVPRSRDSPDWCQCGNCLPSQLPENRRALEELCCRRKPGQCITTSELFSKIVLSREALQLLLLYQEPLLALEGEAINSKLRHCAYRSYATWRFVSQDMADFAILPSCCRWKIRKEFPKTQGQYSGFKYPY
# P2X purinoceptor 7 [4] = target: T1, P2X purinoceptor 7; assay: Antagonist activity at human P2X7 receptor by calcium flux assay
# P2X purinoceptor 7 [5] = target: T3, P2X purinoceptor 7 (Mus musculus, UniProt Q9Z1M0); assay: Antagonist activity at mouse P2X7 receptor by calcium flux assay
# T3 sequence (Q9Z1M0 whole entry): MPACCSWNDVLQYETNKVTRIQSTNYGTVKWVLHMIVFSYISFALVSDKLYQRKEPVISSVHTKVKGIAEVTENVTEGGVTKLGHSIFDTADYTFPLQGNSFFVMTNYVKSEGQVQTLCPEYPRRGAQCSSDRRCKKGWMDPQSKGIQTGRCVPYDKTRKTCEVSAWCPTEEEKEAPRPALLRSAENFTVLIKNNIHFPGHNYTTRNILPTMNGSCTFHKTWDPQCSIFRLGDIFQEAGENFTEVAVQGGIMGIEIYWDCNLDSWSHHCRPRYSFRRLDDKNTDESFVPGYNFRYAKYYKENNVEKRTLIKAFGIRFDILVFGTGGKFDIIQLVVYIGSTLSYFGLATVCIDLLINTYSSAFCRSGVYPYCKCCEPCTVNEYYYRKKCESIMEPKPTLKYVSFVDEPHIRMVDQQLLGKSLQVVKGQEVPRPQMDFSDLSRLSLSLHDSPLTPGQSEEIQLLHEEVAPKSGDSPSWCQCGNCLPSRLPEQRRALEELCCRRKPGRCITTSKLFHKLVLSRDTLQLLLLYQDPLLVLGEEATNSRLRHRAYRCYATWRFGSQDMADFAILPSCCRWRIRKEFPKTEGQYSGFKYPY
# P2X purinoceptor 7 [6] = target: T1, P2X purinoceptor 7; assay: Inhibition of human P2X7 receptor transfected in HEK293 cells by calcium influx assay; assay type: cell-based
# P2X purinoceptor 7 [7] = target: T1, P2X purinoceptor 7; assay: Antagonist activity at human P2X7 receptor expressed in HEK293 by fluorescence plate reader analysis; assay type: cell-based
# [8] = target: T4, P2X purinoceptor 7 (Mus musculus) (UniProt Q9Z1M0); assay: Antagonist activity at P2X7 receptor in mouse Peritoneal macrophage cells assessed as ATP induced dye uptake at 10 uM relative to control; assay type: cell-based
# T4 sequence (whole entry): T3 sequence (Q9Z1M0 whole entry)
smiles,measurement,setting,value
Cc1ccc(OCCO)cc1Nc1nc(=O)cnn1Cc1cc(F)c(F)c(F)c1,IC50,P2X purinoceptor 7 [1],9.7 nM
CCc1cccc(Nc2nc(=O)c3[nH]cnc3n2Cc2ccc(F)cc2)c1CC,IC50,P2X purinoceptor 7 [2],< 10 nM
COc1ccc(Cc2noc(=O)n2CC2CCC(F)(F)CC2)cc1,IC50,P2X purinoceptor 7 [3],1000 nM
same,IC50,P2X purinoceptor 7 [4],1000 nM
same,IC50,P2X purinoceptor 7 [5],1000 nM
Cc1c(Cl)cccc1Nc1nc(=O)cc2n1C(c1ccccc1)CC2 (configuration not stated),IC50,P2X purinoceptor 7 [2],< 10 nM
COc1ccc(Nc2nc(=O)cc3n2C(c2ccccc2)CN3C)c(C)c1 (configuration not stated),IC50,P2X purinoceptor 7 [2],< 10 nM
O=C(NCc1cccc(C(F)(F)F)c1Cl)C1(F)CCC(O)c2ncccc21 (configuration not stated),IC50,P2X purinoceptor 7 [6],< 50 nM
Cc1ncccc1Cc1noc(=O)n1CC1CCC(F)(F)CC1,IC50,P2X purinoceptor 7 [3],1000 nM
same,IC50,P2X purinoceptor 7 [4],200 nM
same,IC50,P2X purinoceptor 7 [5],1000 nM
C[C@H]1CCC[C@@](O)(CNC(=O)c2cn(CCC(F)F)c3cccc(Cl)c23)C1,IC50,P2X purinoceptor 7 [7],< 10 nM
O=c1onc(Cc2c(F)cccc2Cl)n1CC1CCCCCC1,IC50,P2X purinoceptor 7 [3],< 200 nM
same,IC50,P2X purinoceptor 7 [4],< 200 nM
same,IC50,P2X purinoceptor 7 [5],200 nM
COc1cc(Nc2nc(=O)c(F)cn2Cc2cc(F)c(F)c(F)c2)c(C)c(F)c1OC,IC50,P2X purinoceptor 7 [1],< 10 nM
O=c1onc(Cc2ccccc2Cl)n1CC1CCC(F)(F)CC1,IC50,P2X purinoceptor 7 [3],< 200 nM
same,IC50,P2X purinoceptor 7 [4],< 200 nM
same,IC50,P2X purinoceptor 7 [5],200 nM
Cc1ccc(-c2ncco2)cc1Nc1nc(=O)cnn1Cc1cc(F)c(F)c(F)c1,IC50,P2X purinoceptor 7 [1],2.4 nM
COCCn1cc(C(=O)NC[C@@]2(O)CCCC(F)(F)C2)c2c(Cl)cccc21,IC50,P2X purinoceptor 7 [7],< 10 nM
Cc1c(F)cc(CO)cc1Nc1nc(=O)cnn1Cc1cc(F)c(F)c(F)c1,IC50,P2X purinoceptor 7 [1],3 nM
O=c1onc(Cc2ccc(Cl)cc2Cl)n1CC1CCC(F)(F)CC1,IC50,P2X purinoceptor 7 [3],< 200 nM
same,IC50,P2X purinoceptor 7 [4],< 200 nM
same,IC50,P2X purinoceptor 7 [5],200 nM
Cc1nc2cc(C)c(Nc3nc(=O)cc4n3C(c3ccc(F)cc3)CC4)cc2s1 (configuration not stated),IC50,P2X purinoceptor 7 [2],< 10 nM
COc1ccc(Nc2nc(=O)c3[nH]cnc3n2Cc2ccc(F)c(F)c2)c(C)c1,IC50,P2X purinoceptor 7 [2],< 10 nM
CS(=O)(=O)C[C@]1(O)CC[C@@](F)(C(=O)NCc2ccc(Cl)cc2Cl)c2cccnc21,IC50,P2X purinoceptor 7 [6],< 50 nM
CCOC(C)CNC(=O)c1cn(C2COC2)c2cccc(Cl)c12 (configuration not stated),IC50,P2X purinoceptor 7 [7],> 1000 nM
CC1=C(C(c2ccc(C)cc2)n2cc(COCc3ccco3)nn2)C(=O)c2ccccc2C1=O (configuration not stated),inhibition,[8],< 60%
O=c1snc(Cc2c(F)cccc2Cl)n1CC1CCC(F)(F)CC1,IC50,P2X purinoceptor 7 [3],< 200 nM
same,IC50,P2X purinoceptor 7 [4],< 200 nM
same,IC50,P2X purinoceptor 7 [5],< 200 nM
Cc1cc(Nc2nc(=O)c3[nH]cnc3n2Cc2ccccc2)c(C)cc1Cl,IC50,P2X purinoceptor 7 [2],< 10 nM
COCCn1cc(C(=O)NCc2ccc3c(c2)OCO3)c2c(Cl)cccc21,IC50,P2X purinoceptor 7 [7],> 1000 nM
CN1C(=O)N=C(NCc2ccccc2)N2C1=NCC2c1cc(F)c(F)c(F)c1 (configuration not stated),IC50,P2X purinoceptor 7 [2],< 10 nM
COCCn1cc(C(=O)NCc2ccco2)c2c(Cl)cccc21,IC50,P2X purinoceptor 7 [7],> 1000 nM
C[C@@H]1CCC[C@](O)(CNC(=O)c2cn(CC3CCCO3)c3cccc(Cl)c23)C1 (some centres not stated),IC50,P2X purinoceptor 7 [7],10 nM
O=C1CCC(C(=O)NCc2cccc(C(F)(F)F)c2Cl)c2cccnc21 (configuration not stated),IC50,P2X purinoceptor 7 [6],< 50 nM
O=c1onc(Cc2c(F)cccc2Cl)n1CC1CCC(C(F)(F)F)CC1 (configuration not stated),IC50,P2X purinoceptor 7 [3],< 200 nM
same,IC50,P2X purinoceptor 7 [4],< 200 nM
same,IC50,P2X purinoceptor 7 [5],< 200 nM
CC1=C(C(c2ccc(F)cc2)n2cc(COCc3ccco3)nn2)C(=O)c2ccccc2C1=O (configuration not stated),inhibition,[8],< 60%
Cc1c(Cl)cccc1Nc1nc(=O)cc2n1C(c1ccccc1)COC2 (configuration not stated),IC50,P2X purinoceptor 7 [2],1.8 nM
O=C1CO[C@]2(CC[C@@](F)(C(=O)NCc3ccc(Cl)cc3Cl)c3cccnc32)CN1,IC50,P2X purinoceptor 7 [6],< 50 nM
Cc1ccc(Cn2c(Nc3cc4sc(C)nc4cc3C)nc(=O)c3[nH]cnc32)cc1,IC50,P2X purinoceptor 7 [2],500 nM
CC1=C(C(c2ccc(Br)cc2)n2cc(COCc3ccco3)nn2)C(=O)c2ccccc2C1=O (configuration not stated),inhibition,[8],< 60%
COc1ccc(C)c(Nc2nc(=O)cnn2Cc2cncc(F)c2)c1,IC50,P2X purinoceptor 7 [1],100 nM
COCCn1cc(C(=O)NCc2nc3ccccc3s2)c2c(Cl)cccc21,IC50,P2X purinoceptor 7 [7],> 1000 nM
O=c1onc(CN2CCC(F)(F)CC2)n1CC1CCC(F)(F)CC1,IC50,P2X purinoceptor 7 [3],> 10000 nM
same,IC50,P2X purinoceptor 7 [4],> 10000 nM
same,IC50,P2X purinoceptor 7 [5],> 10000 nM
Cc1nc2cc(C)c(Nc3nc(=O)c4[nH]cnc4n3Cc3ccc(F)cc3)cc2s1,IC50,P2X purinoceptor 7 [2],11 nM
O=c1onc(CN2CCOc3ccccc32)n1CC1CCC(F)(F)CC1,IC50,P2X purinoceptor 7 [3],< 200 nM
same,IC50,P2X purinoceptor 7 [4],< 200 nM
same,IC50,P2X purinoceptor 7 [5],< 200 nM
COc1ccc(Nc2nc(=O)c3onc(C)c3n2Cc2ccc(F)c(F)c2)c(C)c1,IC50,P2X purinoceptor 7 [2],< 10 nM
COCCn1cc(C(=O)NCc2ccc(C(F)(F)F)cc2)c2c(Cl)cccc21,IC50,P2X purinoceptor 7 [7],> 1000 nM
CC1CCCC(O)(CNC(=O)c2cn(C3COC3)c3cccc(Cl)c23)C1 (configuration not stated),IC50,P2X purinoceptor 7 [7],< 10 nM
O=c1onc(Cc2c(F)cccc2Cl)n1CC1CC2CCC1C2 (configuration not stated),IC50,P2X purinoceptor 7 [3],< 200 nM
same,IC50,P2X purinoceptor 7 [4],< 200 nM
same,IC50,P2X purinoceptor 7 [5],200 nM
O=c1onc(Cc2c(F)cccc2Cl)n1CC1CCC(F)(F)CC1,IC50,P2X purinoceptor 7 [3],< 200 nM
same,IC50,P2X purinoceptor 7 [4],< 200 nM
same,IC50,P2X purinoceptor 7 [5],< 200 nM
CCN1C(=O)N=C(Nc2cc(C)c(C)cc2C)N2C1=NCC2c1ccccc1 (configuration not stated),IC50,P2X purinoceptor 7 [2],< 10 nM
Cc1ccc(CO)cc1Nc1nc(=O)ccn1Cc1cc(F)c(F)c(F)c1,IC50,P2X purinoceptor 7 [1],4 nM
Cn1nccc1Nc1nc(=O)c(F)cn1Cc1cc(F)c(F)c(F)c1,IC50,P2X purinoceptor 7 [1],> 100 nM
CC1CC(F)(F)CCN1Cn1c(Cc2c(F)cccc2Cl)noc1=O (configuration not stated),IC50,P2X purinoceptor 7 [3],< 200 nM
same,IC50,P2X purinoceptor 7 [4],< 200 nM
same,IC50,P2X purinoceptor 7 [5],< 200 nM
O=C(NCc1ccc(Cl)cc1Cl)[C@@]1(F)CC[C@](O)(CN2CC(O)C2)c2ncccc21,IC50,P2X purinoceptor 7 [6],< 50 nM
O=C(NCc1ccc(F)cc1Cl)[C@]1(F)CC[C@H](OCCO)c2ncccc21,IC50,P2X purinoceptor 7 [6],< 50 nM
CS(=O)(=O)C1CC[C@@](F)(C(=O)NCc2ccc(Cl)cc2Cl)c2cccnc21 (some centres not stated),IC50,P2X purinoceptor 7 [6],< 50 nM
COc1nc(C)c(Nc2nc(=O)c3[nH]cnc3n2Cc2ccc(F)c(F)c2)cc1C,IC50,P2X purinoceptor 7 [2],< 10 nM
Cc1noc(C)c1Cc1noc(=O)n1CC1CCC(F)(F)CC1,IC50,P2X purinoceptor 7 [3],200 nM
same,IC50,P2X purinoceptor 7 [4],< 200 nM
same,IC50,P2X purinoceptor 7 [5],1000 nM
COc1cnc(C)c(Nc2nc(=O)c3c(n2Cc2cc(F)c(F)c(F)c2)CCC3)c1,IC50,P2X purinoceptor 7 [2],100 nM
CC1=C(C(C)n2cc(COCc3ccco3)nn2)C(=O)c2ccccc2C1=O (configuration not stated),inhibition,[8],< 60%
Cc1c(Cl)cccc1Nc1nc(=O)cc2n1C(c1ccccc1)CO2 (configuration not stated),IC50,P2X purinoceptor 7 [2],< 10 nM
COc1ccc(Nc2nc(=O)c3nn(C)cc3n2Cc2cc(F)c(F)c(F)c2)c(C)c1,IC50,P2X purinoceptor 7 [2],< 10 nM
